Source: patent US10828271B2, “Method for treating pleuroperitoneal membrane cancers by locally injecting disulfiram preparation” (NUOMA (BEIJING) TECHNOLOGY CO., LTD, priority 2016, dated 2020)
Like-named read-outs stand apart in the source and are kept apart here.

Tests used:
E58 mesothelioma cells = test: MTT cell survival assay, E58 mesothelioma cells; type: cell-based, human; details: for Synergy index CI at ED50, E58 / Synergy index CI at ED75, E58 / Synergy index CI at ED90, E58: named drug combined with DS + Cu
Experimental: (§1) Separate incubations were performed with pemetrexed, DS/Cu (disulfiram/copper gluconate) and cisplatin for 3 days. Cell survival was determined via an MTT assay.

[1] = tested on: A2780 ovarian cancer cells; test: Cell survival assay, A2780 ovarian cancer cells; type: cell-based, human
Ju77 mesothelioma cells = test: MTT cell survival assay, Ju77 mesothelioma cells; type: cell-based, human; details: for IC50: Ju77 cells, 3 days incubation, MTT, read-out: IC50s (nM), inhibition of mesothelioma growth, Ju77; for Synergy index CI at ED50, Ju77 / Synergy index CI at ED75, Ju77 / Synergy index CI at ED90, Ju77: named drug combined with DS + Cu
Experimental: as §1

2591 mesothelioma cells = test: MTT cell survival assay, 2591 mesothelioma cells; type: cell-based, human; details: for IC50: 2591 cells, 3 days incubation, MTT, read-out: IC50s (nM), inhibition of mesothelioma growth, 2591; for Synergy index CI at ED50, 2591 / Synergy index CI at ED75, 2591 / Synergy index CI at ED90, 2591: named drug combined with DS + Cu
Experimental: as §1

[2] = tested on: SKOV-3 ovarian cancer cells; test: Cell survival assay, SKOV-3 ovarian cancer cells; type: cell-based, human; details: cisplatin (CDDP) combined with DS + Cu
MSTO mesothelioma cells [3] = test: MTT cell survival assay, MSTO mesothelioma cells; type: cell-based, human; details: for IC50: MSTO cells, 3 days incubation, MTT, read-out: IC50s (nM), inhibition of mesothelioma growth, MSTO; for Synergy index CI at ED50, MSTO / Synergy index CI at ED75, MSTO / Synergy index CI at ED90, MSTO: named drug combined with DS + Cu
Experimental: as §1

S180 ascites tumor cells = details: for Formation of ascites and masses at laparotomy: three weeks after cell injection
Experimental: S180 ascites cells were purchased from the Chinese Academy of Sciences Shanghai Cell Bank and cultured in a DMEM medium containing 10% fetal calf serum supplemented with 10 mg/ml streptomycin and 2 mmol/L L-glutamine at 37° C. under a 5% CO2 atmosphere.
S-180 cells were injected at a rate of 2.5×10^6/animal into the abdominal cavity of male Kunming mice and the animals were randomly divided into two groups (8 animals/group). […] Drug administration was performed three times per week. The mice were weighed three times per week. Once the experiment was complete, the animals were sacrificed via cervical dislocation. The abdominal cavities of all mice were opened to observe and assess ascites formation and abdominal wall tumors.

[4] = oral dose of 500 mg; cited from earlier work
MSTO mesothelioma cells [5] = test: Peritoneal MSTO mesothelioma model in CD1 nude mice; type: in vivo, mouse
Experimental: (§2) MSTO mesothelioma cells and SKVO-3 ovarian cancer cells were cultured in a DMEM medium containing 10% fetal calf serum supplemented with 10 mg/ml streptomycin and 2 mmol/L L-glutamine at 37° C. under a 5% CO2 atmosphere.
(§3) MSTO mesothelioma cells and SKVO-3 ovarian cancer cells were injected at a rate of 3×10^6/animal into female CD1 nude mice and animals were randomly divided into two groups (10 animals/group). […] Drug administration was performed three times per week. The mice were weighed three times per week. Once the experiment was complete, the animals were sacrificed via cervical dislocation. The abdominal cavities of all mice were opened to observe and assess ascites formation and abdominal wall tumors.

[6] = absorbed disulfiram in the bloodstream; cited from earlier work
[7] = tested on: SKVO-3 ovarian cancer cells; test: Peritoneal ovarian cancer model in CD1 nude mice; type: in vivo, mouse
Experimental: as §2, §3

[8] = Anticancer activity of disulfiram metabolites (unpublished data); details: unpublished data of the applicant
[9] = disulfiram 5 mg/kg i.p. + CuGlu 5 mg/kg oral, three times per week, Day 21
[10] = disulfiram 40 μg/animal i.p. + CuGlu oral, as of Day 90

[NH2][Pt]([NH2])([Cl])[Cl] [CDDP, cisplatin]
Synergy index CI at ED50, E58 (E58 mesothelioma cells): 0.385 | Synergy index CI at ED75, E58 (E58 mesothelioma cells): 0.355 | Synergy index CI at ED90, E58 (E58 mesothelioma cells): 0.449 | IC50 ([1]; A2780 cells, 3 days incubation, read-out: IC50s (nM), ovarian cancer cells, A2780): 4590 nM | Synergy index CI at ED50, A2780 ([1]; cisplatin (CDDP) combined with DS + Cu, ED50, A2780): 0.567 | Synergy index CI at ED75, A2780 ([1]; cisplatin (CDDP) combined with DS + Cu, ED75, A2780): 0.320 | Synergy index CI at ED90, A2780 ([1]; cisplatin (CDDP) combined with DS + Cu, ED90, A2780): 0.209 | IC50 (Ju77 mesothelioma cells): 8790 nM | Synergy index CI at ED50, Ju77 (Ju77 mesothelioma cells): 0.389 | Synergy index CI at ED75, Ju77 (Ju77 mesothelioma cells): 0.346 | Synergy index CI at ED90, Ju77 (Ju77 mesothelioma cells): 0.319 | IC50 (2591 mesothelioma cells): 9160 nM | Synergy index CI at ED50, 2591 (2591 mesothelioma cells): 0.777 | Synergy index CI at ED75, 2591 (2591 mesothelioma cells): 0.868 | Synergy index CI at ED90, 2591 (2591 mesothelioma cells): 1.170 | Synergy index CI at ED50, SKOV-3 ([2]; ED50): 0.389 | Synergy index CI at ED75, SKOV-3 ([2]; ED75): 0.346 | Synergy index CI at ED90, SKOV-3 ([2]; ED90): 0.319 | IC50 (MSTO mesothelioma cells [3]): 4590 nM | Synergy index CI at ED50, MSTO (MSTO mesothelioma cells [3]): 0.567 | Synergy index CI at ED75, MSTO (MSTO mesothelioma cells [3]): 0.320 | Synergy index CI at ED90, MSTO (MSTO mesothelioma cells [3]): 0.209

Nc1nc2[nH]cc(CCc3ccc(C(=O)N[C@@H](CCC(=O)O)C(=O)O)cc3)c2c(=O)[nH]1 [PMTX, pemetrexed]
IC50 (E58 mesothelioma cells; Homo sapiens, 72 h, E58 cells, 3 days incubation, MTT, read-out: IC50s (nM), inhibition of mesothelioma growth, E58): > 1000 nM | Synergy index CI at ED50, E58 (E58 mesothelioma cells): 0.383 | Synergy index CI at ED75, E58 (E58 mesothelioma cells): 0.384 | Synergy index CI at ED90, E58 (E58 mesothelioma cells): 0.503 | IC50 (Ju77 mesothelioma cells; Homo sapiens, 72 h): > 1000 nM | Synergy index CI at ED50, Ju77 (Ju77 mesothelioma cells): 0.308 | Synergy index CI at ED75, Ju77 (Ju77 mesothelioma cells): 0.431 | Synergy index CI at ED90, Ju77 (Ju77 mesothelioma cells): 0.603 | IC50 (2591 mesothelioma cells; Homo sapiens, 72 h): > 1000 nM | Synergy index CI at ED50, 2591 (2591 mesothelioma cells): 0.341 | Synergy index CI at ED75, 2591 (2591 mesothelioma cells): 0.253 | Synergy index CI at ED90, 2591 (2591 mesothelioma cells): 0.603 | IC50 (MSTO mesothelioma cells [3]; Homo sapiens, 72 h): 920 nM | Synergy index CI at ED50, MSTO (MSTO mesothelioma cells [3]): 0.399 | Synergy index CI at ED75, MSTO (MSTO mesothelioma cells [3]): 0.196 | Synergy index CI at ED90, MSTO (MSTO mesothelioma cells [3]): 0.102

CCN(CC)C(=S)SSC(=S)N(CC)CC [disulfiram]
Mean ascites volume per mouse (S180 ascites tumor cells; [9]): 0 ml per mouse | Number of cancer nodules per mouse (S180 ascites tumor cells; [9]): 0 nodules per mouse | Formation of ascites and masses at laparotomy (S180 ascites tumor cells; disulfiram 5 mg/kg i.p. + CuGlu 5 mg/kg oral): no formation of ascites or masses was observed | Formation of ascites and masses at laparotomy (S180 ascites tumor cells; disulfiram 5 mg/kg i.p. + CuGlu 5 mg/kg oral, listed as DS): no formation of ascites or tumor nodules | Effect on peritoneal metastasis (S180 ascites tumor cells; disulfiram 5 mg/kg i.p. with oral copper gluconate, S180 tumor-bearing mice): completely eliminate the animals' peritoneal metastasis | Body weight compared with control group (S180 ascites tumor cells; one week after injection of the cells): significantly lower than that of mice in the control group | Blood concentration [4]: below the detection limit | Survival rate, mesothelioma mice (MSTO mesothelioma cells [5]; disulfiram 40 μg/animal (2 mg/kg) i.p. + CuGlu 5 mg/kg oral, Day 90): 60% | Ascites, mesothelioma mice (MSTO mesothelioma cells [5]; [10]): did not reveal any ascites | Cancer nodules / masses, mesothelioma mice (MSTO mesothelioma cells [5]; [10]): only a small number of masses had formed | Half-life of reduction by the glutathione reductase system in red blood cells [6]: 4 min | Survival rate, ovarian cancer mice ([7]; disulfiram 40 μg/animal (2 mg/kg) i.p. + CuGlu 5 mg/kg oral, Day 60): 90% | Cancer nodules / masses, ovarian cancer mice ([7]; disulfiram 40 μg/animal i.p. + CuGlu oral, Day 60): only a small number of masses had formed | Ascites, ovarian cancer mice ([7]; disulfiram 40 μg/animal i.p. + CuGlu oral, as of Day 60): did not reveal any ascites

CCN(CC)C(=S)SC1OC(C(=O)O)C(O)C(O)C1O (stereo not shown) [glucuronic acid DDC]
Anticancer activity [8]: completely lack any anticancer activity

CCN(CC)C(=S)SC [methyl DDC]
Anticancer activity [8]: completely lack any anticancer activity

methylated disulfiram
Anticancer activity [8]: completely loses its anticancer activity
